From patent US4593090A, “Novel nitrosourea compounds, method for preparing same, and pharmaceutical composition containing same” (Gogo Kimura, priority 1981, dated 1986)

Assays:
[1] = tested on: Leukemia L1210; test: Activity against Leukemia L1210, intraperitoneal, increase in life span of mice; type: in vivo, female mice (BDF1 family); settings: for ED (maximum ILS) / ED30: Mus musculus, L1210, ip, ip once a day for 5 successive days; for ED (maximum ILS): daily dosage giving maximum increase of life span, read-out: O.D. (optimum dosage); for ED30: daily dosage increasing average survival days by 30%, read-out: ILS30; for Survivors after 60 days / Max. ILS % / Therapeutic ratio TR: ip; for Survivors after 60 days: 6-membered group; for Max. ILS %: 60-day observation, versus control; for Therapeutic ratio TR: O.D./ILS30
Summary of the method: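 L1210 cells (1×10^5) into abdominal cavity of female BDF1 mice, 20–23 g, n=6/group. Dosing 24 h post-implant, ip or po, qd ×5. 60-day observation; ILS% = mean survival vs untreated control; T.R. = O.D./ILS 30.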

[2] = Acute toxicity (LD50, Behrens-Karber method); type: in vivo, ICR mice; settings: mouse, in vivo, ip, mortality during 30 days
Protocol: Test compounds, dissolved or suspended in 0.5% aqueous CMC, were each intraperitoneally administered to ICR mice in a dose of 0.1 ml per 10 g body weight. LD50 (mg/kg) value of each test compound was calculated from the mortality of mice during 30 days by the Behrens-Karber method.

Row | Structure (SMILES) | ED (maximum ILS) [1] | ED30 [1] | Survivors after 60 days [1] | Max. ILS % [1] | Therapeutic ratio TR [1] | LD50 at 720 h [2]
1 | CCCCO[C@H]1O[C@H](CO)[C@@H](O)[C@H](O)[C@H]1N(CCOCCO)C(=O)N(CCCl)N=O [Compound 58, 3-[2-(2-hydroxyethoxy)ethyl]-3-(n-butyl α-D-glucopyranose-2-yl)-1-(2-chloroethyl)-1-nitrosourea] | 190 mg/kg | 4.2 mg/kg | 4/6 | > 422% | 45.2 | 585 mg/kg
2 | CCC(C)O[C@H]1O[C@H](CO)[C@@H](O)[C@H](O)[C@H]1N(CC(C)C)C(=O)N(CCCl)N=O (stereo partly drawn) [Compound 59, 3-isobutyl-3-(sec-butyl α-D-glucopyranose-2-yl)-1-(2-chloroethyl)-1-nitrosourea] | 200 mg/kg | 5.8 mg/kg | 3/6 | > 348% | 34.5 | 605 mg/kg
3 | C=C(C)CN(C(=O)N(CCCl)N=O)[C@H]1[C@@H](OC(C)CC)O[C@H](CO)[C@@H](O)[C@@H]1O (stereo partly drawn) [Compound 60, 3-(2-methyl-2-propenyl)-3-(sec-butyl α -D-glucopyranose-2-yl)-1-(2-chloroethyl)-1-nitrosourea] | 200 mg/kg | 7.15 mg/kg | 3/6 | > 345% | 28.0 | 580 mg/kg
4 | CC(C)CO[C@H]1O[C@H](CO)[C@@H](O)[C@H](O)[C@H]1N(CC(C)C)C(=O)N(CCCl)N=O [Compound 61, 3-isobutyl-3-(isobutyl α-D-glucopyranose-2-yl)-1-(2-chloroethyl)-1-nitrosourea] | 190 mg/kg | 5.86 mg/kg | 3/6 | > 340% | 32.4 | 595 mg/kg
5 | CC(C)CO[C@H]1O[C@H](CO)[C@@H](O)[C@H](O)[C@H]1N(Cc1ccccc1)C(=O)N(CCCl)N=O [Compound 62, 3-benzyl-3-(isobutyl α-D-glucopyranose-2-yl)-1-(2-chloroethyl)-1-nitrosourea] | 200 mg/kg | 7.8 mg/kg | 3/6 | > 340% | 25.6 | 565 mg/kg
6 | O=NN(CCCl)C(=O)N(CCCCO)C1C(OC2CCCCC2)OC(CO)C(O)C1O [Compound 66, 3-(4-hydroxy-n-butyl)-3-(cyclohexyl α-D-glucopyranose-2-yl)-1-(2-chloroethyl)-1-nitrosourea] | 200 mg/kg | 8.55 mg/kg | 3/6 | > 345% | 23.4 | 620 mg/kg
7 | O=NN(CCCl)C(=O)N(CCC1CCCC1)C1C(OC2CCCCC2)OC(CO)C(O)C1O [Compound 67, 3-(2-cyclopentylethyl)-3-(cyclohexyl α-D-glucopyranose-2-yl)-1-(2-chloroethyl)-1-nitrosourea] | 200 mg/kg | 7.5 mg/kg | 3/6 | > 355% | 28.6 | 650 mg/kg
8 | COCCCOC1OC(CO)C(O)C(O)C1N(CC(C)C)C(=O)N(CCCl)N=O [Compound 68, 3-isobutyl-3-(3-methoxy-n-propyl α-D-glucopyranose-2-yl)-1-(2-chloroethyl)-1-nitrosourea] | 170 mg/kg | 4.43 mg/kg | 4/6 | > 425% | 38.4 | 500 mg/kg
9 | CCOCCCOC1OC(CO)C(O)C(O)C1N(C(=O)N(CCCl)N=O)C(C)CC [Compound 69, 3-sec-butyl-3-(3-ethoxy-n-propyl α-D-glucopyranose-2-yl)-1-(2-chloroethyl)-1-nitrosourea] |  |  | 4/6 | > 435% |  | 560 mg/kg
10 | COCC(C)OC1OC(CO)C(O)C(O)C1N(CC(C)C)C(=O)N(CCCl)N=O (stereo not drawn) [Compound 70] | 200 mg/kg | 5.21 mg/kg | 4/6 | > 420% | 38.4 | 645 mg/kg
11 | COCC(C)OC1OC(CO)C(O)C(O)C1N(CC1CC1)C(=O)N(CCCl)N=O [Compound 72, 3-cyclopropylmethyl-3-(1-methyl-2-methoxyethyl α-D-glucopyranose-2-yl)-1-(2-chloroethyl)-1-nitrosourea] | 180 mg/kg | 4.53 mg/kg | 5/6 | > 625% | 39.7 | 550 mg/kg
12 | CC(C)CN(C(=O)N(CCCl)N=O)C1C(OC2CCCCC2)OC(CO)C(O)C1O [Compound 73, 3-isobutyl-3-(cyclohexyl α-D-glucopyranose-2-yl)-1-(2-chloroethyl)-1-nitrosourea] | 200 mg/kg | 5.38 mg/kg | 4/6 | > 420% | 37.2 | 670 mg/kg
13 | CCCCN(C(=O)N(CCCl)N=O)C1C(O)C(CO)OC(OCCCOC)C1O [Compound 76, 3-n-butyl-3-(3-methoxy-n-propyl α-D-glucopyranose-3-yl)-1-(2-chloroethyl)-1-nitrosourea] | 200 mg/kg | 5.21 mg/kg | 3/6 | > 360% | 38.4 | 650 mg/kg
14 | COCCCOC1OC(CO)C(O)C(N(CC(C)C)C(=O)N(CCCl)N=O)C1O [Compound 77, 3-isobutyl-3-(3-methoxy-n-propyl α-D-glucopyranose-3-yl)-1-(2-chloroethyl)-1-nitrosourea] | 200 mg/kg | 5.08 mg/kg | 4/6 | > 425% | 39.4 | 685 mg/kg
15 | CCOCCCOC1OC(CO)C(O)C(N(CC(C)C)C(=O)N(CCCl)N=O)C1O [Compound 78, 3-isobutyl-3-(3-ethoxy-n-propyl α-D-glucopyranose-3-yl)-1-(2-chloroethyl)-1-nitrosourea] | 200 mg/kg | 5.33 mg/kg | 3/6 | > 355% | 37.5 | 675 mg/kg
16 | COCC(C)OC1OC(CO)C(O)C(N(CC(C)C)C(=O)N(CCCl)N=O)C1O [Compound 79, 3-isobutyl-3-(1-methyl-2-methoxyethyl α-D-glucopyranose-3-yl)-1-(2-chloroethyl)-1-nitrosourea] | 200 mg/kg | 4.93 mg/kg | 4/6 | > 430% | 40.6 | 690 mg/kg
17 | CCCCOC1OC(CO)C(O)C(N(C(=O)N(CCCl)N=O)C(C)CC)C1O [Compound 81, 3-sec-butyl-3-(n-butyl β-D-glucopyranose-3-yl)-1-(2-chloroethyl)-1-nitrosourea] | 200 mg/kg | 5.8 mg/kg | 3/6 | > 360% | 34.5 | 580 mg/kg
18 | CCC(C)OC1OC(CO)C(O)C(N(CC(C)C)C(=O)N(CCCl)N=O)C1O [Compound 84, 3-isobutyl-3-(sec-butyl α-D-glucopyranose-3-yl)-1-(2-chloroethyl)-1-nitrosourea] | 220 mg/kg | 5.8 mg/kg | 3/6 | > 355% | 37.9 | 695 mg/kg
19 | C=C(C)CN(C(=O)N(CCCl)N=O)C1C(O)C(CO)OC(OC(C)CC)C1O [Compound 85, 3-(2-methyl-2-propenyl)-3-(sec-butyl α-D-glucopyranose-3-yl)-1-(2-chloroethyl)-1-nitrosourea] | 220 mg/kg | 7.25 mg/kg | 3/6 | > 360% | 30.3 | 685 mg/kg
20 | COCC(C)N(C(=O)N(CCCl)N=O)C1C(O)C(CO)OC(OC2CCCCC2)C1O [Compound 87, 3-(1-methyl-2-methoxyethyl)-3-(cyclohexyl α-D-glucopyranose-3-yl)-1-(2-chloroethyl)-1-nitrosourea] | 200 mg/kg | 4.24 mg/kg | 6/6 | > 700% | 47.2 | 720 mg/kg
21 | O=NN(CCCl)C(=O)N(CCC1CCCC1)C1C(O)C(CO)OC(OC2CCCCC2)C1O [Compound 88, 3-(2-cyclopentylethyl)-3-(cyclohexyl α-D-glucopyranose-3-yl)-1-(2-chloroethyl)-1-nitrosourea] | 200 mg/kg | 6.62 mg/kg | 3/6 | > 360% | 30.2 | 710 mg/kg
22 | CCCN(C(=O)N(CCCl)N=O)C1C(CO)OC(OCC(C)C)C(O)C1O [Compound 90, 3-n-propyl-3-(isobutyl α-D-glucopyranose-4-yl)-1-(2-chloroethyl)-1-nitrosourea] | 100 mg/kg | 3.07 mg/kg | 3/6 | > 350% | 32.6 | 325 mg/kg
23 | C=C(C)CN(C(=O)N(CCCl)N=O)C1C(CO)OC(OC(C)CC)C(O)C1O [Compound 91, 3-(2-methyl-2-propenyl)-3-(sec-butyl α-D-glucopyranose-4-yl)-1-(2-chloroethyl)-1-nitrosourea] | 150 mg/kg | 4.65 mg/kg | 3/6 | > 340% | 32.3 | 450 mg/kg
